The text below walks through data of patent US8343549B2, “Therapeutic uses of Dunaliella powder” (Nikken Sohonsha Corporation, priority 2003, dated 2013).

Experiment [1] has as its system male LDL R-\-mice. The experiment in a line: Western diet-induced diabetes in LDL R-/- mice. It counts as in vivo. To be noted: LDL R-/- mice on Western diet, 4 weeks treatment. An excerpt:
To test the effect of Dunaliella on Diabetes, male LDL R-\-mice (n=30) were fed a Western diet (42% calories from fat) in order to induce Diabetes. After 4 weeks of Western diet feeding, the mice were divided into 6 groups (n=5 in each group) and were fed Western diet fortified by rosiglitazone (0.02% of the diet, weight/weight), crude Dunaliella powder (8% of the diet, weight/weight) or 9-cis retinoic acid (24 nmol/mouse×day). The treatments lasted 4 weeks.
The 8% Dunaliella powder provided ˜1.5 nmol 9-cis retinoic acid/mouse×day. This calculated amount is based on conversion of β-carotene to vitamin A (27 molecules provide 1 molecule of vitamin A and on the ratio of retinoic acid to vitamin A which is about 1 molecule of retinoic acid to 300 molecules of retinol, retinal and retinoic acid).
The following groups were included:
1. Control, Western diet alone. (Control)
2. 9-cis retinoic acid (RA)
4. Dunaliella powder 8% (Dun)

Experiment [2] relates to patients. To be noted: patients treated with gemfibrozil; cited from earlier work.

Turning to `CC1=C(/C=C/C(C)=C\C=C\C(C)=C\C(=O)O)C(C)(C)CCC1` [9-cis retinoic acid], in experiment [1], the plasma glucose levels result is “did not affect” and the plasma insulin levels result is “did not affect”.
With `Cc1ccc(C)c(OCCCC(C)(C)C(=O)O)c1` [gemfibrozil], the “reduction of the rate of coronary events” value in experiment [2] is 22%.
